Legend:
human NaP2b (SLC34A2) = target: T1, human NaP2b (SLC34A2) (Homo sapiens, UniProt O95436); assay: Inhibition of NaP2b-mediated Pi (33P) uptake in transfected HEK293 cells, human NaP2b; format: cell-based; conditions: read-out: pIC50 range for human NaP2b (converted)
T1 construct: host or cells: HEK293
T1 sequence (O95436 1-690): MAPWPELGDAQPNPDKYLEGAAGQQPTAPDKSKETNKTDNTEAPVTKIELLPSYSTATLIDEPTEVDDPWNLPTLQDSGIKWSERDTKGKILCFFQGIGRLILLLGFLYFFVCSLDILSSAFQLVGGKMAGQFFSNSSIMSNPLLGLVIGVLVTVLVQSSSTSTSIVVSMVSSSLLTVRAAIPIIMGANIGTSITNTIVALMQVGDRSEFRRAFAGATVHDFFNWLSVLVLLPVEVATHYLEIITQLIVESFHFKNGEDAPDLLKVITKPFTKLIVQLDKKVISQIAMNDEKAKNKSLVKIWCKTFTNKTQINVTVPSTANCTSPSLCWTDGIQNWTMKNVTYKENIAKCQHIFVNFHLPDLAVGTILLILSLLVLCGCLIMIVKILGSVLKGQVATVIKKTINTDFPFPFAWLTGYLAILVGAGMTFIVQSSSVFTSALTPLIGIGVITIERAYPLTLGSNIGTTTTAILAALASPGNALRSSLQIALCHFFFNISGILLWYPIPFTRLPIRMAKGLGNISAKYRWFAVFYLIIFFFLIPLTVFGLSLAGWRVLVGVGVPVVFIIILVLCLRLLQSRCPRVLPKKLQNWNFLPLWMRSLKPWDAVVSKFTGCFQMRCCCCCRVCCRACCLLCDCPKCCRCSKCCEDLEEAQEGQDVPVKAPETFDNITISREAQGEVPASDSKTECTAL
How it was run: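 HEK293 cells transiently transfected with human NaP2b (Thr inserted after residue 37, N39D), endogenous PiT transport pharmacologically silenced. Sodium or choline buffer, pH 7.4, with 100 uM KH2PO4, 33P orthophosphate and compound (0.1 nM–30 uM, twelve concentrations, duplicate). 3-30 min at room temperature, scintillation counting, pIC50 derived.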

[1] = Determination of compound Cmax and AUC after oral gavage (plasma LC-MS/MS); format: in vivo, Sprague-Dawley rats; conditions: Sprague-Dawley, rat, plasma, po, Structure (I) examples, Table 15, actual oral dose 3-15 mg/kg, plasma 0.5-4 h
How it was run: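 Sprague-Dawley rats dosed by oral gavage at nominal 2.5 or 10 mg/kg; blood drawn at 0.5, 1, 2 and 4 h into K2EDTA. Plasma protein-precipitated with acetonitrile plus internal standard and analysed by LC-MS/MS against a plasma standard curve to derive Cmax and AUC.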

SMILES | IC50 (human NaP2b (SLC34A2)) [nM] | AUC [1] [ng·h/mL] | Cmax [1] [ng/mL]
O=C(O)CCOCCOCCOCCOCCSCc1cccc(C(=O)Nc2ccc(N3CCCCC3)cc2-c2cc(C(=O)N[C@H]3CCCc4ccccc43)ccn2)c1 [Example 142, 1-(3-{[4-(piperidin-1-yl)-2-(4-{[(1S)-1,2,3,4-tetrahydronaphthalen-1-yl]carbamoyl}pyridin-2-yl)phenyl]carbamoyl}phenyl)-5,8,11,14-tetraoxa-2-thiaheptadecan-17-oic acid] | 1000 to 7940 | < 10 | < 10
CCN(CC)c1ccc(NC(=O)c2cccc(CCCOCCOCCOCCOCCC(=O)O)c2)c(-c2cc(C(=O)NCc3cccc(C(F)(F)F)c3)ccn2)c1 [Example 251, 16-(3-(4-(diethylamino)-2-(4-(3-(trifluoromethyl)benzylcarbamoyl)pyridin-2-yl)phenylcarbamoyl)phenyl)-4,7,10,13-tetraoxahexadecan-1-oic acid] | < 1000 | < 10 | < 10

Continued, values first:

IC50 (human NaP2b (SLC34A2)) [nM] | AUC [1] [ng·h/mL] | Cmax [1] [ng/mL] | SMILES
< 1000 | < 10 | < 10 | CCN(CC)c1ccc(NC(=O)c2cccc(CSCCOCCOCCOCCOCCOCCOCCOCCOC)c2)c(-c2cc(C(=O)N[C@H]3CCCc4ccccc43)ccn2)c1 [Example 286, (S)-2-(2-(3-(2,5,8,11,14,17,20,23-octaoxa-26-thiaheptacosan-27-yl)benzamido)-5-(diethylamino)phenyl)-N-(1,2,3,4-tetrahydronaphthalen-1-yl)isonicotinamide]
< 1000 | > 50 | < 50 | CCN(CC)c1ccc(NC(=O)c2cccc(CCCOCCOCCOCCOCCOCCOCCOCCOCCOC)c2)c(-c2cc(C(=O)N[C@H]3CCCc4ccccc43)ccn2)c1 [Example 261, (S)-2-(2-(3-(2,5,8,11,14,17,20,23,26-nonaoxanonacosan-29-yl)benzamido)-5-(diethylamino)phenyl)-N-(1,2,3,4-tetrahydronaphthalen-1-yl)isonicotinamide]
< 1000 | < 30 | < 30 | O=C(O)CCOCCOCCOCCOCCCc1cccc(C(=O)Nc2ccc(N3CCCCC3)cc2-c2cc(C(=O)N[C@H]3CCCc4ccccc43)ccn2)c1 [Example 252, 3-(2-(2-(2-(3-(3-((2-(4-(((S)-1,2,3,4-tetrahydronaphthalen-1-yl)carbamoyl)pyridin-2-yl)-4-(piperidin-1-yl)phenyl)carbamoyl)phenyl)propoxy)ethoxy)ethoxy)ethoxy)propanoic acid]
